Source: patent publication US6593365B1, “Diflunisal esters and related compounds” (The University of Queensland, priority 1997, dated 2003)
Like-named read-outs stand apart in the source and are kept apart here. Marks after values point to notes of the source that are not given here.

Assays:
[1] = system: human platelet rich plasma; test: Platelet aggregation induced by arachidonic acid; assay type: cell-based; conditions: compound 600 µM, 37° C., arachidonic acid 200 µM
Procedure: Platelet aggregation studies were carried out using a single channel Lumiaggregometer (Chrono-Log Company, Haverton, Pa.) at 37° C. using human platelet-rich and platelet-poor plasma. Platelet-rich plasma (PRP) with a platelet concentration of […] (measured with a Coulter counter) was prepared by centrifuging 3.8% citrated […] (1:9) at 1,500 rpm using a (Beckman) benchtop centrifuge at room temperature for 15 minutes. Platelet-poor plasma (PPP) was prepared by further centrifuging residual blood from platelet-rich plasma at 3,000 rpm for 30 minutes. Platelet-poor plasma was also confirmed b y Coulter counting for platelet content.
Platelet aggregation studies were preceded by pipetting 0.4 mL platelet-rich plasma into a stirred aggregometer tube and calibrate to 90% of recorder. Platelet-poor plasma was set to calibrate at 10% of recorder. Platelet aggregation was initiated by the addition of a arachidonic acid (Sigma) or ADP (Sigma).
10 mM solutions of each compound (TABLE 6) were prepared in 1 mL of normal saline solution (containing 4% BSA) before use. An aliquot (400 μL) of platelet-rich plasma was pipetted into a stirred aggregometer tube at 37° C. and 30 μL of test sample added simultaneously. This mixture was preincubated for varying period (3 to 45 minutes), then arachidonic acid (AA) was added (final conc.=200 μM) to initiate platelet aggregation. If no aggregation occurred, 20 μM ADP was added to confirm the vitality of the platelets (if the platelets are vital, ADP will induce this AA-test sample-plasma mixture to aggregate). This procedure is necessary to investigate whether the non-aggregation phenomenon is due to drug inhibition or simply due to inviable platelets (unable to respond to AA). The degree of aggregation was measure by calculating the area under the turbidimetric response curve (AUC).

[2] = system: OH. generated from Fenton's reaction; test: Luminol-dependent chemiluminescence induced by Fenton's reagent; assay type: biochemical; design: unit of the concentration uncertain; conditions: F: CL induced by Fenton's reagent, n=3
Procedure: CL was measured with a luminometer (Model 1250; LKB Wallac, Finland) and recorded in millivolts (Cheung et al., 1984, supra).
Fenton's reagent (FeSO4 and H2O2) was used as a standard reaction mixture for the generation of OH. (Lai and Piette, 1979, Tetrahedron Lett. 775-778):
Fe^+++H2O2→Fe^++++OH.+OH (1)
The initial reaction mixture consisted of 20 μL of 3.8 mM FeSO4.7H2O, 20 μL of 5 mg/mL luminol (Sigma), and 2 mL of 1 mM phosphate buffer in a 3 mL polystyrene cuvette. Twenty microlitres of 320 mM H2O2 was added to initiate the Fenton's reaction.
A known concentration of the ethanolic (≲1%) aspirin analogue or diflunisal ester's stock solution was added to the 1 mM phosphate buffer to prepare solutions with a final concentration of 50 μM, 250 μM or 500 μM. Twenty microlitres of these test samples was added onto the cuvette which contained the initial reaction mixture. H2O2 was added to induce CL reaction. The luminol-dependent CL response was recorded in mV by a potentiometric recorder.
(§1) CL measurements were always done in triplicate and Student's t-test used to assess the statistical significance of the difference between measurements.

[3] = system: superoxide generated from xanthine oxidase plus xanthine reaction; test: Xanthine oxidase plus xanthine-induced chemiluminescence; assay type: biochemical; design: dose or concentration left out as unconfirmed; conditions: X: CL induced by xanthine oxidase plus xanthine
Procedure: To clarify the role of aspirin analogues and diflunisal esters in free radicals scavenging, the Fenton's reagent was replaced by an artificial superoxide generating system in the CL inhibition studies. This cell-free system consisted of 100 μg/mL of xanthine oxidase (Sigma) plus 0.5 μM xanthine (Sigma) (Rosen and Klebanoff, 1976, J Clin Invest 58 50-60; Cheson et al., 1976, J Clin Invest 58 789-796).
as §1

[4] = system: ischaemic/reperfusion rat livers; test: Ischaemic/reperfusion injury in rat livers (LDH release, bile production); design: species or system Female Sprague-Dawley rats; conditions: for EC50: Rattus norvegicus
Procedure: Female Sprague-Dawley rats (220-250 g) were anaesthetised by interperitoneal injection of pentobarbital sodium (60 mg/kg, Boehringer Ingelhein). […] The bile duct was cannulated with a polyethylene tubing (PE-10, I.D. 0.28 mm; Clay Adams, New Jersey) and bile was collected into pre-weighed microcentrifuge tubes at 70 min intervals (in the middle of experiment and the end of experiment). The portal vein was then cannulated using a 16 G intravenous catheter and the liver was perfused via this cannula with 2% BSA Krebs-Henseleit bicarbonate buffer (pH 7.4) and oxygenated using a membrane oxygenator comprising of silastic tubing and ventilated with carbogen (95% O2/5% CO2). The perfusion system used was recirculating and employed a peristaltic pump (Cole-Parmer, Illinois).
Following a 10 min pre-ischaemia perfusion, the perfusion flow was stopped for 30 min at 37° C. with the liver being kept moist. At the end of this ischaemic phase, a known concentration of the aspirin analogue or diflunisal ester's solution (in 2% BSA Krebs-Henseleit buffer) was added into the perfusate prior to the perfusion being resumed for another 100 min. Outflow fractions were collected up to 140 min. A biochemistry autoanalyzer (Hitachi, model 747; Tokyo, Japan) was employed to determine the level of enzyme (LDH) release.
The degree of ischaemic/reperfusion injury was measured by calculating the area under the LDH release ([…]) versus time curve (AUC). […] The efficacy of each compound is expressed in terms of ED50 which represents the molar dose for 50% reduction of LDH release compared to the control. The comparison of bile production between the first stage of experiment (the first 70 min) and the second stage of experiment (the last 70 min) is also used as index of liver function during an experiment.

[5] = Intrinsic (maximum) solubility in water at pH 1.5; assay type: physicochemical; conditions: water at pH 1.5, 25 1° C.; U = Undetectable
Procedure: The pH conditions were chosen to ensure that the solubility of the unionised species was estimated. […] Lea & Febiger/Philadelphia. […] […] The solvent (9.9 mL) was then added to the test tube. […] The test tube was sonicated for 15 minutes and centrifuged for 10 minutes (3000 g at 25° C.). An aliquot was filtered (Minisart 0.45 μm filter, Satorius) and diluted with HPLC mobile phase, then assayed. The tube was stored carefully in a 25° C. water bath after sampling and the remaining suspension was again sonicated and the process repeated 7 times at four hourly intervals. In these assays, standard curves were prepared by directly dissolving the esters in mobile phase. Concentrations for standard curves ranged from 1-50 μg/mL for all compounds. Furthermore, a manual injector (Waters Model U6K) was used (20 μL sample loop) which ensured that 20 μL was consistently injected onto the column and precluded the need for an internal standard.

[6] = In vitro non-enzymatic hydrolysis in Krebs-Henseleit buffer; assay type: physicochemical; conditions: pH 7.4, 25° C., n=5
Procedure: These experiments were carried out both in Krebs-Henseleit buffer containing either no protein or 2% w/v BSA (bovine serum albumin, fraction V, Sigma) at pH 7.4 and 25±1° C.
Solutions of the derivatives in Krebs buffer (10 mL) was prepared in siliconised glass tubes. Each solution was sonicated for 5 minutes and centrifuged for 5 minutes (3000 g) at 25° C. to ensure maximum dissolution and to sediment any undissolved precipitate. About 7.5 mL of the supernatant was then transferred to a clean siliconised test tube and a 100 μL aliquot was removed and assayed. […] The rate of non-enzymatic hydrolysis (k) for each derivative was then estimated using the following equation: […]
where C1 is the concentration of the ester at any time (t), and C0 is the concentration of the ester at time zero. The half-life (t½) was determined using the formula: […]

[7] = Maximum solubility in 2% BSA Krebs-Henseleit buffer (pH 7.4); assay type: physicochemical; conditions: 25 1° C.
Excerpt: The intrinsic solubility of diflunisal esters is extremely low (TABLE 2). The more lipophilic the analogue, the higher the solubility of solute under these conditions.

[8] = system: in-situ perfused rat liver; test: In-situ rat liver perfusions, hepatic extraction (Example 4); assay type: in vitro ADME; conditions: protein-free Krebs-Henseleit buffer as perfusate; hepatic extraction=1- hepatic availability (F)
Procedure: The hepatic availability (F) for the O-acyl esters of SA and DF was determined using a once through in-situ perfused rat liver preparation (Mellick and Roberts, 1996, J Pharm Pharmacol 48:738-743). Liver was perfused with protein-free Krebs-Henseleit buffer at 30 mL/min for aspirin analogues and with Krebs-Henseleit buffer containing 2% BSA for diflunisal esters studies. Since the solubilities of the diflunisal esters in protein-free media were very low, 2% BSA were used to help to solubilize these compounds. Briefly, 50 μL of a saturated solution of the particular O-acyl SA or DF in Krebs-Henseleit buffer was injected as a bolus into the portal vein cannula. Perfusate outflow samples have collected via a fraction collector over 3 min. 100 μL of these samples was assayed by HPLC to determine the residual concentration of presented ester and the quantity of phenolic metabolite (SA or DF) collected from the perfused liver. The HPLC assay was a modification of the method used by Owen et al. (1987, J Chrom B Biomed Appl 416 293-302) and Rumble et al. (1981, J Chrom 225 252-260).
The hepatic availability (F) was calculated from the ratio of the area under the first moment curve, i.e., outflow concentration time-time profile to the area under the curve for the salicylate phenolic esters, with the assistance of the Moments Calculator 2.2 program for Macintosh computer developed by Robert Purves (1994, J Pharm Sci 83:202-205).

Row | Compound | Platelet Aggregation (% of control) ([1]; preincubation 3 minutes) | Platelet Aggregation (% of control) ([1]; preincubation 5 minutes) | Platelet Aggregation (% of control) ([1]; preincubation 8 minutes) | Platelet Aggregation (% of control) ([1]; preincubation 10 minutes) | Platelet Aggregation (% of control) ([1]; preincubation 12 minutes) | Platelet Aggregation (% of control) ([1]; preincubation 15 minutes) | Platelet Aggregation (% of control) ([1]; preincubation 20 minutes) | Platelet Aggregation (% of control) ([1]; preincubation 25 minutes) | Platelet Aggregation (% of control) ([1]; preincubation 45 minutes) | CL inhibition (%) ([2]; 2.5 (unit uncertain) compound) | CL inhibition (%) ([2]; 5 (unit uncertain) compound) | CL inhibition (%) [3] [%] | Maximum solubility [5] [mM] | further results
1 | CCCCCCC(=O)Oc1ccc(-c2ccc(F)cc2F)cc1C(=O)O [Compound C7D, n-heptanoyldiflunisal] | 97.5 ± 0.9 % of control | 96.3 ± 1.1 % of control | 91.4 ± 0.1 % of control | 91.1 ± 2.1 % of control | 90.8 ± 0.8 % of control | 89.7 ± 2.1 % of control | 77.3 ± 3.1 % of control | 57.3 ± 0.1 % of control | 0 % of control | 57.3 ± 1.9 | 87.4 ± 3.4 | 0.9 ± 0.1 | – | CL inhibition (%) ([2]; 0.5 (unit uncertain) compound, U = undetectable): 21.3 ± 3.7%; log 1/C ([4]; C is the ED50 molar dose): 4.52
2 | CCC(=O)Oc1ccccc1C(=O)O [Compound C3SA, n-propionylsalicylic acid] | 0 % of control | 0 % of control | 0 % of control | 0 % of control | 0 % of control | 0 % of control | 0 % of control | 0 % of control | 0 % of control | – | – | – | 6.3 | Hydrolysis rate constant (k) ([6]; Krebs-Henseleit buffer 0% BSA, U = Undetectable): 0.0147 ± 0.0025 hour^1; Hydrolysis rate constant (k) ([6]; Krebs-Henseleit buffer 2% BSA): 0.0102 ± 0.0031 hour^1
3 | CCC(=O)Oc1ccc(-c2ccc(F)cc2F)cc1C(=O)O [Compound C3D, n-propionyldiflunisal] | 96.5 ± 3.1 % of control | 89.3 ± 0.4 % of control | 67.3 ± 0.1 % of control | 49.7 ± 1.1 % of control | 19.3 ± 0.5 % of control | 0 % of control | 0 % of control | 0 % of control | 0 % of control | – | – | – | 0.01 | Maximum solubility [7]: 10.29 mM; Maximum solubility ([7]; mean standard deviation (n=3)): 3150 ± 20 µg/mL
4 | O=C(O)c1ccccc1O [SA, 2-hydroxybenzoic acid, reference compound] | – | – | – | – | – | – | – | – | – | 52.9 ± 2.1 | 99.0 ± 1.0 | 0.2 ± 0.0 | – | Hepatic extraction [8]: 0.05^c; EC50 ([4]; C is the ED50 molar dose, read-out: log 1/C (converted)): 72.4 µM; EC50 ([4]; molar dose for 50% reduction of LDH release compared to control, 30 min ischaemia, 100 min reperfusion, read-out: ED50 (the source's name)): 72.6 µM
